Test results taken from patent US20070011757A1, “Transgenic rodents as animal models for modulation of B1 bradykinin receptor protein” (priority 2001, published 2007).

Columns and labels:
[1] = biological target: T1, human B1 bradykinin receptor (Homo sapiens, UniProt P46663); assay: 3H-DALK binding to membranes from transgenic rat brain tissue
T1 construct: from tissue; host or cells: whole-brain membranes of transgenic Sprague-Dawley rats carrying Construct #1
T1 sequence (P46663 1-353): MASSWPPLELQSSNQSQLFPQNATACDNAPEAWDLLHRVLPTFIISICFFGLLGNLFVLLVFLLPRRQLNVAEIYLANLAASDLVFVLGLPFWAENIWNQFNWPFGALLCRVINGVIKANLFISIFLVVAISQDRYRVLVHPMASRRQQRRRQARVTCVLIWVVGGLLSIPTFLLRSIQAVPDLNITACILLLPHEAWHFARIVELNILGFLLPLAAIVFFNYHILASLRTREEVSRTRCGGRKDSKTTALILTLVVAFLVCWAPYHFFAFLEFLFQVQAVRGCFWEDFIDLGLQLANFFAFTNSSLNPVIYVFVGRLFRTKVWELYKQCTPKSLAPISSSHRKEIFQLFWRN
Description: Also important in these assays is the low expression level of endogenous B1 receptor in neuronal tissue. Briefly, transgenic animals from line 0004, 0014, and 0015 (all females) were decapitated following anesthesia and the whole brain was removed, bisected sagitally and the entire 1⁄2 brain weighed. Weights were as follows: line 0004 (813 mg), line 0014 (851 mg), and 0015 (843 mg). The brain tissue was homogenized with a Polytron in ice cold 50 mM Tris-HCl, 1 mM EDTA, 1 mM o-phenanthroline, pH 7.4. The homogenate was centrifuged at 50,000×g for 20 minutes. The pellet was resuspended and homogenized a second time in Tris buffer, and the centrifugation step was repeated. The final pellet was resuspended in assay buffer (20 mM HEPES, 120 mM NaCl, 5 mM KCl, 1 mM o-phenanthroline, 0.2 uM of […] form and active metabolite of […] added to inhibit angiotensin converting enzyme), 100 μg/ml bacitracin, 3 μM amastatin, 1 μM phosphoramidon, 0.1% BSA, pH 7.4. The assay was carried out in a 0.5 ml volume at room temperature for sixty minutes with 10 mg wet weight tissue/tube. Total protein was determined using a Bio Rad DC assay kit. […] FIG. 9A, 9B and 9C show measurements of the amount of total, nonspecific and specific binding of ^3H-DALK to transgenic rat brain tissue which expresses human B1 bradykinin receptor. […] In contrast, no B1 receptor is detected in the brains of non-transgenic rats. The Ki values determined for three standard lead compounds in Line 0004 are very similar to those obtained at the cloned hB1 receptor expressed in CHO cells. Therefore, expression of the human B1 bradykinin receptor in Line 0004 has the properties expected for the human B1 receptor.

endogenous B1 receptor = biological target: T2, endogenous B1 receptor (Rattus norvegicus, UniProt P97583); assay: Autoradiography of [3H]DALK binding in brain and spinal cord sections of non-transgenic rats; details: non-transgenic control rats, 0.3 nM radioligand
T2 construct: DALK in non-transgenic control rats; from tissue; host or cells: brain and spinal cord sections (and whole-brain homogenate) of non-transgenic Sprague-Dawley rats
T2 sequence (P97583 1-337): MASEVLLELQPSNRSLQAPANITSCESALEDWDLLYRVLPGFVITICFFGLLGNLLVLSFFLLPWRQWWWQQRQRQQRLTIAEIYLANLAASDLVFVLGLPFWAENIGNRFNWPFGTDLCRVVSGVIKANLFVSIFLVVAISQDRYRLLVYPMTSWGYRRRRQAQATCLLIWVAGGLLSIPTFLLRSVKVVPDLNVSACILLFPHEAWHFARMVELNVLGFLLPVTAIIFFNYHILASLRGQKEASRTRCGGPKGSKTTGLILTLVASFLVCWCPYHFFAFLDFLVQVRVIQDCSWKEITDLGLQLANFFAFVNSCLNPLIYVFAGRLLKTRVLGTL

affinity for the human B1 receptor relative to the rat B1 receptor [1]: greater affinity | selectivity ([1]; printed as 'approximately 40 fold selective for this ligand'): approximately 40 fold | expression (specific binding of 3H-DALK, saturation binding) ([1]; transgenic rat Line 0004 brain membranes, FIG. 9A): 40 fmol/mg protein | expression (specific binding of 3H-DALK, saturation binding) ([1]; transgenic rat Line 0014 brain membranes, FIG. 9B): 4 fmol/mg protein | expression (specific binding of 3H-DALK, saturation binding) ([1]; transgenic rat Line 0015 brain membranes, FIG. 9C): 7 fmol/mg protein | binding site in transgenic rats expressing the human B1 receptor ([1]; whole brain homogenate assay or receptor autoradiography of brain slices): readily detectable | specific binding (endogenous B1 receptor): did not show any specific binding signal | specific binding (endogenous B1 receptor; listed as [H-3] DALK): no detectable specific binding
Substance: [des-Arg^10, Leu^9]-Kallidin [^3H-DALK]
